The test system of test [1] is platelets. Kind of test: Aggregometry, % aggregation on activation. The format is cell-based, human. Further details: concentration or dose not given beside the values. Conditions: ristocetin activation. As for the experimental part: (§1) In order to prepare human platelets for testing, as approved by Canadian Blood Services' Ethics Board, samples of whole blood were drawn from healthy, consenting donors into 2.7-4.0 mL citrated tubes (BD, USA). Platelet rich plasma (PRP) was prepared from whole blood by centrifugation in a Beckman (CS-6R) bench-top centrifuge (r=203.57 mm, Beckman Coulter, USA) 164×g for 15 minutes. PRP from a number of unrelated donors were evaluated on an Adiva 120 Hematology Analyzer (Bayer, Canada) and standardized to a concentration of 300×10^9 platelets/L in HEPES buffered saline (HBS, 10 mM HEPES, 150 mM NaCl, pH 7.4).
(§2) The effect of native HPG, free peptides, and peptide-conjugated HPG on activated platelets using modifications of the above assay systems was also examined. Platelets were treated with either 5 μL 4.2 mg/mL ristocetin (Chrono-Log, USA) or 100 U thrombin (T6884, Sigma-Aldrich, Canada) with 5 μL GPRP fibrin inhibitor (G5779, Sigma-Aldrich, Canada) dissolved in HBS. This was done to determine whether the peptides and the peptide-conjugates can mitigate vWf and thrombin mediated platelet effects. Controls included incubation with mouse IgG-FITC/IgG-PE (Beckman-Coulter, Canada) of the same isotype, and/or omitting the conjugate. As a result, native HPG, free peptides, and peptide-conjugated HPG neither did they increase vWf binding to resting platelets (Table 5) or they could trigger platelet activation.
The inhibition of platelet agglutination by vWf was observed both by light microscopy and lumiaggregometry (Table 5). No clumping was seen when resting platelets were incubated with free peptides, native HPG, or peptide-conjugated HPG.

Test [2] deals with vWf binding to resting platelets. Kind of test: Flow cytometry of vWf binding to resting platelets. It is filed as cell-based, human. As for the experimental part: as §1
(§3) 40 μL aliquots of HBS were mixed with 5 μL PRP and 5 μL of the material to be tested: 500 kDa native HPG; free peptides; or peptide-conjugated HPG at 1.0×10^−3 M to 1.0×10^−9 M. After 40 minutes of incubation at ambient temperature, 5 μL 0.01 mg/mL FITC-conjugated polyclonal sheep anti-human vWf IgG (Abcam, USA) or 5 μL of 2 mg/mL PE-conjugated monoclonal mouse anti-human CD62 IgG (Beckman-Coulter, Canada) was added and incubation was continued in the dark for 30 min. Thereafter the samples were diluted and fixed with 1.0 mL 0.2% formolsaline (0.2% formaldehyde, 150 mM NaCl, pH 7.20) before analysis on a FACS Canto flow cytometer (BD, USA).
as §2

Test [3] concerns the target T1, GPIb-vWf interaction (Homo sapiens, UniProt P07359).
T1 construct: Platelet rich plasma (PRP) was prepared from whole blood by centrifugation; endogenous in cells
Kind of test: Flow cytometry inhibition of vWf binding to ristocetin-activated platelets in PRP. The format is cell-based. As to the method: as §1
Thereafter the samples were diluted and fixed with 1.0 mL 0.2% formolsaline (0.2% formaldehyde, 150 mM NaCl, pH 7.20) before analysis on a FACS Canto flow cytometer (BD, USA).
The effect of native HPG, free peptides, and peptide-conjugated HPG on activated platelets using modifications of the above assay systems was also examined. Platelets were treated with either 5 μL 4.2 mg/mL ristocetin (Chrono-Log, USA) or 100 U thrombin (T6884, Sigma-Aldrich, Canada) with 5 μL GPRP fibrin inhibitor (G5779, Sigma-Aldrich, Canada) dissolved in HBS. […] Controls included incubation with mouse IgG-FITC/IgG-PE (Beckman-Coulter, Canada) of the same isotype, and/or omitting the conjugate.
On the technique in general: In flow cytometry, cells or beads pass a laser one at a time.

In test [4] the test system is GPIIbIIIa. Put plainly: Ristocetin-mediated GPIIbIIIa activation probed by PAC-1 antibody, flow cytometry. The following applies: at IC50 concentration, 60 minutes, PAC-1, p<0.05. It is filed as cell-based, human. As for the experimental part: To show inhibition of the GPIb-vWf interaction in PRP, activation had to target the plasma component, specifically vWf, by ristocetin, rather than the consequences of platelet activators such as thrombin or ADP. Ristocetin mediated GPIb signaling was detected through GPIIbIIIa activation and flow cytometry. 5 μL resting PRP were incubated with […] (SEQ ID NO:8) or L100 at their respective IC50 concentrations for 60 minutes and 5 μL 4.2 mg/mL ristocetin was used to induce platelet activation. Consequent GPIIbIIIa activation was probed via a monoclonal FITC-conjugated PAC-1 antibody to the active conformation of GPIIbIIIa (BD, Canada).

Test [5] concerns CD62/P-selectin on platelet surfaces. Put plainly: Flow cytometry of surface CD62 expression on platelets. It is filed as cell-based, human. The following applies: for Surface CD62 Expression, Activated Platelets: thrombin-activated platelets. As for the experimental part:
as §1, §3
as §2, with “activation. […]” for “activation.”

The target in test [6] is T2, fibrinogen (Homo sapiens, UniProt P02671+P02675+P02679).
T2 sequence (P02671 20-629 limits assumed): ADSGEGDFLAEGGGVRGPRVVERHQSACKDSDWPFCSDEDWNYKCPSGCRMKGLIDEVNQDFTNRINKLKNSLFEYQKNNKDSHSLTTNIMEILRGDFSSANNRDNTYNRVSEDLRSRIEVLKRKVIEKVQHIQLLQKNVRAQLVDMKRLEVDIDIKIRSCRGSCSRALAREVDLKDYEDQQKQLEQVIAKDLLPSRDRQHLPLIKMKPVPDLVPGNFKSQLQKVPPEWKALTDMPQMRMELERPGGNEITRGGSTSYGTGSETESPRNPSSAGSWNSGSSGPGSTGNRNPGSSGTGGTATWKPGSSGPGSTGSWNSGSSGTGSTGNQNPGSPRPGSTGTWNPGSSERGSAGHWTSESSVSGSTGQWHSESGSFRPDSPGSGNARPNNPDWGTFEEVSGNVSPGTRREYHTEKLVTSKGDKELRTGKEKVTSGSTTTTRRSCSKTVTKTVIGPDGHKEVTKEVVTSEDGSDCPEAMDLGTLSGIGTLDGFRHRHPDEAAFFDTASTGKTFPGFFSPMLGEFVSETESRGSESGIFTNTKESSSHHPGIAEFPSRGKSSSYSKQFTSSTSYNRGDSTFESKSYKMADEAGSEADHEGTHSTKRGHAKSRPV
T2 sequence (P02675 31-491): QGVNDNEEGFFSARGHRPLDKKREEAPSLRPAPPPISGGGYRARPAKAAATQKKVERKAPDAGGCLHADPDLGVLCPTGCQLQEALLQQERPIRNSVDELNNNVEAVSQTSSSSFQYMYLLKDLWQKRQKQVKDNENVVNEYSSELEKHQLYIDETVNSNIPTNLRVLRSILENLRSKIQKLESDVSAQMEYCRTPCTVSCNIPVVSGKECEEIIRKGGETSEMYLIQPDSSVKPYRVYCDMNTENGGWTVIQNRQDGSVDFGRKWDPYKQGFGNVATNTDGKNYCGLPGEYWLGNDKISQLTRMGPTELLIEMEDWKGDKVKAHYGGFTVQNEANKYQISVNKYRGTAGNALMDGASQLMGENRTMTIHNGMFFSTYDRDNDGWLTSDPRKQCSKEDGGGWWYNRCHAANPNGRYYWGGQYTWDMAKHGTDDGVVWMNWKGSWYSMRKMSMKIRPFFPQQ
T2 sequence (P02679 27-433 limits assumed): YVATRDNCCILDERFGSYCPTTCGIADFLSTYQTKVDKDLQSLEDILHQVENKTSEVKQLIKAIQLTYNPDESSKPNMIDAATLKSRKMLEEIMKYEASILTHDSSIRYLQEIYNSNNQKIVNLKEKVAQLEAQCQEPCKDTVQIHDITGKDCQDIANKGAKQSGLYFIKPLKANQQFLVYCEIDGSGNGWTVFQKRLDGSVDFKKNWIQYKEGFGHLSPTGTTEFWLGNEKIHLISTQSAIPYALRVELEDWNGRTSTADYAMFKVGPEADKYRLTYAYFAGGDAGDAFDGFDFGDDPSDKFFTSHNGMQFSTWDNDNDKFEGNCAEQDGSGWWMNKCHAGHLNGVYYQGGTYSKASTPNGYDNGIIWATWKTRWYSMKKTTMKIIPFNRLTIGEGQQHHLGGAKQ
Kind of test: Binding of D-amino acid-containing sequences to fibrinogen. The text has this: These peptides can be used to pull/capture fibrinogen from a solution as well as to inhibit the interaction between fibrinogen and its cognate receptor(s).

Where two headings read alike, the source gives them in different places. Non-standard residues stand in square brackets, D forms with d. No end group written: not given here.

CGGGGGGSHAYIGLKDR [L-pep]: in test [1], the “Aggregometry % Aggregation on Activation” value is 5 ± 5%. Further, the “vWf Binding, Resting Platelets” value in test [2] is reported as 24 ± 4′. In addition, the IC50 in test [3] came to 48 µM. For the same substance, the “GPIIbIIIa activation upon ristocetin stimulation” value in test [4] is “significantly attenuated”. Moreover, in test [5], the “Surface CD62 Expression, Resting Platelets” value was found to be 18 ± 1 and the “Surface CD62 Expression, Activated Platelets” value is on record as 72 ± 8″.
Turning to “FKWSWEWQGQEAYYD ([dF][dK][dW][dS][dW][dE][dW][dQ]G[dQ][dE][dA][dY][dY][dD])”, in test [6], the “ability to bind to fibrinogen” value is “bind to fibrinogen”.
Take “FRIYYVYTTSQQDSC ([dF][dR][dI][dY][dY][dV][dY][dT][dT][dS][dQ][dQ][dD][dS][dC])”: the “ability to bind to fibrinogen” value in test [6] is listed as “bind to fibrinogen”.
Same read-out and setting: in the case of “KYQCYAPAHPSYVNY (also: D-amino acids, places not given here)” it was “bind to fibrinogen”.
“L100: HPG 500 kDa conjugate with about 100 L-peptides per HPG molecule (CGGGGGGSHAYIGLKDR; also: conjugated to HPG 500 kDa, about 100 L-peptides per HPG molecule, site not given here)”: the “vWf Binding, Resting Platelets” value in test [2] was 23 ± 2′. In addition, the “inhibition of vWf binding to platelets (in words)” value in test [3] is given as “effective inhibitors”. The IC50 in test [3] (expressed as peptide concentration, read-out: Peptide Concentration at Ic50) is 210 µM. In addition, the IC50 in test [3] (inhibition of platelet-vWf binding, molar concentration of peptide or conjugate, read-out: Ic50) worked out at 1.1 µM. Besides, in test [4], the “GPIIbIIIa activation upon ristocetin stimulation” value is “significantly attenuated”. Moreover, in test [5], the “Surface CD62 Expression, Resting Platelets” value amounted to 20 ± 3 and the “Surface CD62 Expression, Activated Platelets” value is reported as 71 ± 5″.
As for “SMTSMCYLIGAPKYK (also: D-amino acids, places not given here)”, the “ability to bind to fibrinogen” value in test [6] is reported as “bind to fibrinogen”.

Source of the values: patent US7919465B2, “Peptide mimotopes that inhibits interaction between a platelet receptor and a platelet receptor ligand” (priority 2006, dated 2011).
